Laboratory results: patent US20230158057A1, “COMPOSITIONS AND METHODS FOR THE TREATMENT OF PAIN” (Duke University, priority 2020, published 2023)
“Also recorded” adds a separate entry of the source.

Experiments:
naïve mice [1] = assay: Von Frey testing of mechanical thresholds in naïve mice (WT and knockout); assay type: in vivo, mouse; settings: for mechanical sensory thresholds (von Frey): i.t. injection
Protocol: (§1) Reflexive-based sensory testing in mice: All behavioral testing in mice was performed in a specialized humidity- and light-controlled mouse behavior facility maintained at 21-24° C., with testing conducted between the hours of 8:00-16:00. Mice were habituated to the testing environment for at least 2 days prior to baseline testing. All tests were performed by an experimenter who was blinded to experimental conditions, including genotypes and drug treatment. For multi-day experiments using STING agonists, mice were tested in the same room at approximately the same time each day. To measure mechanical sensitivity, mice were confined to individual chambers with non-transparent borders on an elevated mesh rack, preventing mice from visualizing or interacting with one another during the testing period. Mouse hindpaws were stimulated with a series of von Frey filaments with logarithmically increasing stiffness (0.02-2.56 g, Stoelting), which was applied perpendicularly to the central plantar surface. We determined the 50% paw withdrawal threshold using the up-down method. […] To test cold sensitivity, mice were again placed on an elevated metal mesh floor in isolated chambers, and a ˜20 μl acetone drop was applied to the central plantar surface of the mouse hindpaw using a pipette.
For the experiments utilizing i.t. 2′3′-cGAMP and 3′3′-cGAMP complexed with Lipofectamine 2000 (ThermoFisher, 11668), 10 μg 2′3′-cGAMP or 3′3′-cGAMP was incubated at room temperature for 30 minutes in sterile PBS with 3 μl Lipofectamine 2000. In this case, the vehicle control was 3 μl Lipofectamine 2000 in PBS, as in a previous study which used this approach. […] For experiments utilizing rabbit anti-IFN-α or -β neutralizing antibodies, a polyclonal rabbit IgG antibody served as the control. Antibodies were utilized in vivo at 300 ng/mouse or in vitro at 300 ng/ml. Paclitaxel was administered via repeated i.p. injections every other day for 4 days at a dose of 2 mg/kg. For the whole mount DRG recordings, young mice (4-6 weeks) were administered a single 6 mg/kg dose one week prior to the experiment. All intrathecal injections were performed under brief anesthesia with 2-2.5% isoflurane. Drugs administered by intrathecal injection were preceded by shaving a small area on the back corresponding to the injection site, followed by spinal puncture using a 30-gauge needle between the L5-L6 levels to deliver a maximum of 5-10 μl into the cerebrospinal fluid. Successful intrathecal injection was always confirmed by a brisk tail-flick upon delivery. For the experiments involving intraplantar (i.pl.) injection, IFN-α was dissolved in sterile saline and administered at the concentrations indicated in the figures in a total volume of 20 μl, administered under 2-2.5% isoflurane anesthesia to minimize animal stress. For these experiments, vehicle (saline) or IFN-α were slowly and carefully expressed into the left dorsal hindpaw of anesthetized mice and allowed to perfuse the tissue for ˜20 seconds prior to removal of the needle. […] Mechanical sensory testing was done anteriorly and care was taken to avoid Von Frey filament stimulation of the injection site.

[2] = tested on: mice with intrafemoral Lewis lung carcinoma (LLC); assay: LLC bone cancer pain model, systemic (i.p.) treatment, behavior tests and body weight; assay type: in vivo, mouse
Protocol: Bone cancer pain model. The murine cell lines LLC1, LL/2-Luc2 or E0771 were lightly digested using 0.05% trypsin, followed by centrifugation to remove poorly digested cell clusters. Cells were then resuspended in PBS at a concentration of 1×10^8 cells/ml. The inoculation was performed as previously described (Wang, K. et al. “PD-1 blockade inhibits osteoclast formation and murine bone cancer pain.” The Journal of clinical investigation, (2020); Wang, Z. et al. “Anti-PD-1 treatment impairs opioid antinociception in rodents and nonhuman primates.” Sci Transl Med 12 (2020)). Briefly, mice were anesthetized with 4% isoflurane and the left leg was shaved and the skin disinfected with 10% povidone-iodine and 75% ethanol. A superficial incision (0.5-1 cm) was made near the knee joint, exposing the patellar ligament. […] The syringe contents were slowly injected into the femoral cavity over a 2-minute interval. To prevent further leakage of tumor cells outside of the bone cavity, the outer injection site was sealed with silicone adhesive (Kwik-Sil, World Precision Instruments, US). Animals with surgery related movement dysfunction or with outside bone tumor injection were excluded from the study. Drug treatment. […] All other reagents were dissolved in sterile saline or PBS. For experiments utilizing rabbit anti-IFN-α or -β neutralizing antibodies, a polyclonal rabbit IgG antibody served as the control. […] Behavior tests. All the behavioral tests were conducted in a blinded manner and performed during between the hours of 9:00-16:00. Animals were habituated in a light and humidity controlled testing environment for at least 2 days prior to baseline testing. For Von Frey testing, mice were confined to individual 5×5 cm boxes placed on an elevated wire grid. A blinded experimenter stimulated their hindpaws using a series of von Frey filaments with logarithmically increasing stiffness (0.02-2.56 g, Stoelting). Each filament was applied perpendicularly to the central plantar surface. The 50% paw withdrawal threshold was determined using Dixon's up-down method.

[3] = Solubility noted at drug preparation; assay type: physicochemical; settings: diluted in PBS containing 5% DMSO and 0.0625% Tween-20
Protocol: For the experiments utilizing i.t. 2′3′-cGAMP and 3′3′-cGAMP complexed with Lipofectamine 2000 (ThermoFisher, 11668), 10 μg 2′3′-cGAMP or 3′3′-cGAMP was incubated at room temperature for 30 minutes in sterile PBS with 3 μl Lipofectamine 2000. In this case, the vehicle control was 3 μl Lipofectamine 2000 in PBS, as in a previous study which used this approach. […] For experiments utilizing rabbit anti-IFN-α or -β neutralizing antibodies, a polyclonal rabbit IgG antibody served as the control. Antibodies were utilized in vivo at 300 ng/mouse or in vitro at 300 ng/ml. Paclitaxel was administered via repeated i.p. injections every other day for 4 days at a dose of 2 mg/kg. For the whole mount DRG recordings, young mice (4-6 weeks) were administered a single 6 mg/kg dose one week prior to the experiment. All intrathecal injections were performed under brief anesthesia with 2-2.5% isoflurane. Drugs administered by intrathecal injection were preceded by shaving a small area on the back corresponding to the injection site, followed by spinal puncture using a 30-gauge needle between the L5-L6 levels to deliver a maximum of 5-10 μl into the cerebrospinal fluid. Successful intrathecal injection was always confirmed by a brisk tail-flick upon delivery. […]

naïve mice [4] = assay: Hot plate test after resiniferatoxin ablation of TRPV1+ nociceptors; assay type: in vivo, mouse
tumor-bearing femora = assay: Bone fractures of tumor-bearing femora on d17 after LLC inoculation; assay type: in vivo, mouse; settings: vehicle 87.5%
Protocol: Development and progression of cancer-induced osteolytic bone destruction frequently leads to bone fracture, which is an important component of SREs in patients with bone metastasis and is associated with decreased overall survival. On d17 after LLC inoculation, mice were euthanized and the tumor bearing femora were collected and the distal tumor-bearing femur where bone destruction occurs was analyzed.

mice with CIPN or BCP = assay: Conditioned place preference (CPP) assay in chronic pain (CIPN and BCP) models; assay type: in vivo, mouse; settings: mice with neuropathic pain (CIPN), i.t. 35 nmol
Protocol: (§2) All mice underwent 3 d of preconditioning habituation in a temperature- and humidity-controlled room under low-light conditions between 08:00-16:00 in a two compartment CPP chamber (Med Associates Inc.). The two compartments differed by both visual and tactile cues. On the 4th day, animal behavior was video-recorded using a webcam connected to a laptop computer, and animal movement was automatically tracked for 15 minutes using the ANY-Maze software (Stoelting). […] On the conditioning day(s) (day 5 for single trial; day 5-7 for repeated trials), two pairing sessions were performed, with vehicle pairing in the AM session and drug treatment (e.g., vehicle or drug) in the PM session, separated by 4 h. In the AM session, mice always received vehicle (10 μl saline, delivered via i.t. injection under isoflurane anesthesia) and were immediately placed in their preferred CPP chamber for 2 h. […] 24 h after the completion of the pairing experiments, mice were placed in the CPP test box with access to both chambers and behavior was recorded for 15 minutes and analyzed using the ANY-Maze software for chamber preference. CPP score was calculated as the inverse of the time spent in the preferred chamber according to: [post-preference (sec)—pre-preference (sec)]. Vehicle served as a negative control for these experiments, while morphine (three trials/naïve mice) or clonidine (single trial/ongoing pain) served as positive controls.

naïve mice [5] = assay: Conditioned place preference (CPP) assay in naïve mice; settings: i.t., morphine 2 nmol, DMXAA or ADU-S100 35 nmol
Protocol: as §2

naïve mice [6] = assay: Naloxone reversal of antinociception; assay type: in vivo, mouse; settings: naloxone 10 mg/kg i.p.; morphine 2 nmol i.t., DMXAA or ADU-S100 35 nmol i.t.
Protocol: Following naloxone delivery, mice were tested within 15 minutes. For the experiments testing whether mice developed tolerance to the effects of STING agonists, vehicle or DMXAA (35 nmol) were administered via i.t. injection. Naïve mice received five single injections at D0, D3, D6, D9, and D12, with testing each day 4 h after injection. SNI mice received injections on two consecutive days beginning on D7 (D7 and D8) and every 48 h afterwards following the conclusion of sensory testing (D10, D12, D14, D16, and D18). Spinal cords (L4-L5) were collected for analysis of glial cell activation at D21 following SNI.

[7] = tested on: rhesus macaques (Macaca mulatta); settings: comparison value; cited from earlier work
[8] = tested on: Ifnar1+/+ and Ifnar1−/− mice; assay type: in vivo, mouse; settings: i.t. IFN-α
Protocol: as §1, with “pipette. […]” for “pipette.”

## Nc1nc2c(ncn2[C@@H]2O[C@@H]3COP(=O)(O)O[C@H]4[C@@H](O)[C@H](n5cnc6c(N)ncnc65)O[C@@H]4COP(=O)(O)O[C@@H]2[C@@H]3O)c(=O)[nH]1 [2′3′-cGAMP, 2′3′ cyclic guanosine monophosphate—adenosine monophosphate]
naïve mice [1]; naïve mice
  mechanical sensory thresholds (von Frey): induced dose-dependent antinociception; also recorded: elevated mechanical thresholds

## Nc1nc2c(ncn2[C@@H]2O[C@@H]3COP(=O)(O)O[C@H]4[C@@H](O)[C@H](n5cnc6c(N)ncnc65)O[C@@H]4COP(=O)(O)O[C@H]3[C@H]2O)c(=O)[nH]1 [3′3′-cGAMP]
naïve mice [1]; naïve mice
  mechanical sensory thresholds (von Frey): induced dose-dependent antinociception; also recorded: elevated mechanical thresholds
[2]; d11, 4 h after single i.p. injection
  acute effect on bone cancer pain: could attenuate cold allodynia or/and mechanical allodynia

## O=C(Nc1ccc(I)cc1)c1ccc([N+](=O)[O-])o1 [C-176]
[3]
  solubility: poor solubility
naïve mice [1]; naïve mice, i.t.
  mechanical sensitivity after i.t. inhibitor or neutralizing antibody: transient dose-dependent hypersensitivity

## CCc1ccc(NC(=O)Nc2c[nH]c3ccccc23)cc1 [H-151]
[3]
  solubility: poor solubility
naïve mice [1]; naïve mice, i.t.
  mechanical sensitivity after i.t. inhibitor or neutralizing antibody: transient dose-dependent hypersensitivity

## Cn1cc(Nc2nccc(N3C[C@H]4CC[C@@H](C3)N4C(=O)[C@@H]3CC3(F)F)n2)cn1 [PF-06700841]
naïve mice [1]; naïve mice, i.t.
  mechanical sensitivity after i.t. inhibitor or neutralizing antibody: induced transient, dose-dependent mechanical allodynia
naïve mice [1]; naïve mice, i.t., 1 μg
  effect of pretreatment on IFN-β-induced antinociception: abolished IFN-β-induced antinociception

## C=C(C)[C@]12C[C@@H](C)[C@@]34O[C@](Cc5ccccc5)(O[C@@H]1[C@@H]3C=C(COC(=O)Cc1ccc(O)c(OC)c1)C[C@]1(O)C(=O)C(C)=C[C@@H]41)O2 [RTX]
naïve mice [4]
  heat sensitivity in the hot plate test: heat insensitivity

## O=P(O)(O)C(O)(Cn1ccnc1)P(=O)(O)O [ZA, Zoledronic acid]
tumor-bearing femora
  mice with distal bone fractures: 25%
[2]; LLC model, twice i.p.
  body weight: no effect on overall body weight

## Clc1cccc(Cl)c1N=C1NCCN1 [clonidine]
Mice with CIPN or BCP
  conditioned place preference, single pairing: robust CPP

## CN1CC[C@]23c4c5ccc(O)c4O[C@H]2[C@@H](O)C=C[C@H]3[C@H]1C5 [morphine]
naïve mice [5]
  conditioned place preference, repeated pairing: induces CPP
naïve mice [6]
  effect of naloxone on the antinociception of the substance: reversed
[7]
  intrathecal dose producing analgesia in NHPs: 100 nmol

## IFN-α
naïve mice [1]; i.t.
  antinociception in WT vs Ifnar1-gKO/cKO mice: induced transient antinociception in WT mice which was abolished in Ifnar1-gKO/cKO mice
  mechanical hypersensitivity of STINGgt/gt mice: could transiently rescue mechanical hypersensitivity
naïve mice [1]; naïve mice, i.t.
  paw withdrawal thresholds after i.t. recombinant interferon: increased paw withdrawal thresholds
naïve mice [1]; naïve mice, i.t., listed as IFN-a
  paw withdrawal thresholds after i.t. recombinant interferon: induced transient, dose-dependent antinociception
[8]
  mechanical hypersensitivity induced by intraplantar IFN-α: could block the mechanical hypersensitivity induced by intraplantar IFN-α

## IFN-β: recombinant mouse IFN-β produced in mammalian cells (PBL Assay Science, 12410-1)
naïve mice [1]; i.t.
  antinociception in WT vs Ifnar1-gKO/cKO mice: induced transient antinociception in WT mice which was abolished in Ifnar1-gKO/cKO mice
  mechanical hypersensitivity of STINGgt/gt mice: could transiently rescue mechanical hypersensitivity
naïve mice [1]; naïve mice, i.t.
  paw withdrawal thresholds after i.t. recombinant interferon: induced transient, dose-dependent antinociception; also recorded: increased paw withdrawal thresholds

## poly(I:C)
naïve mice [1]; i.t. 1 μg, knockout genotypes
  effect on mechanical thresholds in knockout mice: abolished in Ifnar1fx/fx; Nav1.8-Cre and RIG-I−/− mice
naïve mice [1]; i.t. 1 μg, responsive genotypes
  mechanical thresholds after i.t. dsDNA or dsRNA analog: elevated mechanical thresholds similarly in Ifnar1fx/fx (WT), STINGgt/gt, and cGAS−/− mice
